Values of other authors as cited in patent US20050148552A1, “Methods of treating eczema” (priority 2003, published 2005).
Structures can show the parent of a compound that is named as a salt.

Columns and labels:
[1] = single dose of two 100 mg minocycline HCl tablets or capsules, adult humans
[2] = 250 mg every six hours over a twenty-four hour period

Row | Structure (SMILES) | average minocycline serum level [1] [µg/mL] | peak serum level [2]
1 | CN(C)c1ccc(O)c2c1C[C@H]1C[C@H]3[C@H](N(C)C)C(O)=C(C(N)=O)C(=O)[C@@]3(O)C(O)=C1C2=O [minocycline HCl] | 2.24 | 
2 | CN(C)[C@@H]1C(O)=C(C(N)=O)C(=O)[C@@]2(O)C(O)=C3C(=O)c4c(O)cccc4[C@@](C)(O)[C@H]3C[C@@H]12 [tetracycline HCl] |  | approximately 3 μg/ml
